Results from ChEMBL document CHEMBL1201862, “PubChem BioAssay data set” (2004).
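96-well plates; 48 h exposure; 5 concentrations. Endpoints by linear interpolation between flanking doses. Not reached: highest tested concentration assigned. Abbreviation: GI50, concentration required for 50% inhibition of growth.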 The source made the active and inactive calls. Rule as the data show it: active = GI50 up to about 1.1 µM and inactive = higher.

Legend:
Assay in all cases: NCI-60 cell line screen, 48 h
TK-10 = tested on: TK-10
MOLT-4 = tested on: MOLT-4
SK-MEL-5 = tested on: SK-MEL-5
UACC-62 = tested on: UACC-62
HCT-116 = tested on: HCT-116
K562 = tested on: K562
SN12C = tested on: SN12C
UO-31 = tested on: UO-31
Hs-578T = tested on: Hs-578T
NCI-H460 = tested on: NCI-H460
PC-3 = tested on: PC-3
EKVX = tested on: EKVX
RPMI-8226 = tested on: RPMI-8226
HCT-15 = tested on: HCT-15
HT-29 = tested on: HT-29
SK-OV-3 = tested on: SK-OV-3
COLO 205 = tested on: COLO 205
DU-145 = tested on: DU-145

Compound: COC(=O)C(C(=O)C(=O)Nc1c(C)cccc1C(C)(C)C)c1nc2ccc(Cl)cc2nc1O (stereo unspecified)
- GI50 (TK-10): > 100 µM (inactive)
- GI50 (MOLT-4): > 100 µM (inactive)
- GI50 (SK-MEL-5): > 100 µM (inactive)
- GI50 (UACC-62): > 100 µM (inactive)
- GI50 (HCT-116): > 100 µM (inactive)
- GI50 (K562): > 100 µM (inactive)
- GI50 (SN12C): > 100 µM (inactive)
- GI50 (UO-31): > 100 µM (inactive)
- GI50 (Hs-578T): > 100 µM (inactive)
- GI50 (NCI-H460): > 100 µM (inactive)
- GI50 (PC-3): > 100 µM (inactive)
- GI50 (EKVX): 49.8 µM (inactive)
- GI50 (RPMI-8226): > 100 µM (inactive)
- GI50 (HCT-15): > 100 µM
- GI50 (HT-29): > 100 µM (inactive)
- GI50 (SK-OV-3): > 100 µM (inactive)

Compound: COC(=O)[C@@H]1CN(C(=O)CCc2ccccc2)C(=O)N1C(=O)OCc1ccccc1
- GI50 (TK-10): > 100 µM (inactive)
- GI50 (MOLT-4): > 100 µM (inactive)
- GI50 (SK-MEL-5): > 100 µM (inactive)
- GI50 (UACC-62): > 100 µM (inactive)
- GI50 (HCT-116): > 100 µM (inactive)
- GI50 (K562): > 100 µM (inactive)
- GI50 (SN12C): > 100 µM (inactive)
- GI50 (UO-31): > 100 µM (inactive)
- GI50 (Hs-578T): 57.1 µM (inactive)
- GI50 (NCI-H460): 59.4 µM (inactive)
- GI50 (EKVX): > 100 µM (inactive)
- GI50 (RPMI-8226): > 100 µM (inactive)
- GI50 (COLO 205): > 100 µM (inactive)
- GI50 (HCT-15): > 100 µM
- GI50 (HT-29): > 100 µM (inactive)
- GI50 (DU-145): > 100 µM (inactive)
- GI50 (SK-OV-3): > 100 µM (inactive)

Compound: CC(C)(C)OC(=O)NCCc1ccc(N)cc1
- GI50 (TK-10): > 100 µM (inactive)
- GI50 (MOLT-4): 37.2 µM (inactive)
- GI50 (SK-MEL-5): 33 µM (inactive)
- GI50 (UACC-62): > 100 µM (inactive)
- GI50 (HCT-116): > 100 µM (inactive)
- GI50 (K562): 66.5 µM (inactive)
- GI50 (UO-31): 4.2 µM (inactive)
- GI50 (NCI-H460): > 100 µM (inactive)
- GI50 (PC-3): > 100 µM (inactive)
- GI50 (EKVX): > 100 µM (inactive)
- GI50 (RPMI-8226): 58.6 µM (inactive)
- GI50 (COLO 205): > 100 µM (inactive)
- GI50 (HCT-15): > 100 µM
- GI50 (HT-29): > 100 µM (inactive)
- GI50 (DU-145): > 100 µM (inactive)

Compound: CC(C)CNC(=O)CCc1cccc2c1oc1c(CCN)cccc12
- GI50 (MOLT-4): 11.8 µM (inactive)
- GI50 (SK-MEL-5): 14.2 µM (inactive)
- GI50 (UACC-62): 17.1 µM (inactive)
- GI50 (HCT-116): 9.93 µM (inactive)
- GI50 (K562): 1.98 µM (inactive)
- GI50 (SN12C): 17.4 µM (inactive)
- GI50 (UO-31): 12.4 µM (inactive)
- GI50 (NCI-H460): 18.2 µM (inactive)
- GI50 (PC-3): 13.4 µM (inactive)
- GI50 (EKVX): 14.3 µM (inactive)
- GI50 (COLO 205): 5.86 µM (inactive)
- GI50 (HCT-15): 24.1 µM
- GI50 (HT-29): 9.31 µM (inactive)
- GI50 (DU-145): 17.9 µM (inactive)
- GI50 (SK-OV-3): 17 µM (inactive)

Compound: COc1ccccc1Nc1nc(NNC(=O)Cc2ccccc2)nc(NNC(=O)c2ccncc2)n1
- GI50 (TK-10): > 10 µM (inactive)
- GI50 (MOLT-4): > 10 µM (inactive)
- GI50 (SK-MEL-5): > 10 µM (inactive)
- GI50 (UACC-62): > 10 µM (inactive)
- GI50 (K562): > 10 µM (inactive)
- GI50 (SN12C): > 10 µM (inactive)
- GI50 (Hs-578T): 9.04 µM (inactive)
- GI50 (NCI-H460): > 10 µM (inactive)
- GI50 (EKVX): > 10 µM (inactive)
- GI50 (RPMI-8226): > 10 µM (inactive)
- GI50 (COLO 205): > 10 µM (inactive)
- GI50 (HCT-15): > 10 µM
- GI50 (HT-29): > 10 µM (inactive)
- GI50 (DU-145): > 10 µM (inactive)
- GI50 (SK-OV-3): > 10 µM (inactive)

Compound: COc1ccc(/C=C2/SC(c3ccc(Cl)cc3)N(NC(=O)CCCCCCCCC(=O)NN3C(=O)/C(=C\c4ccc(OC)c(OC)c4)SC3c3ccc(Cl)cc3)C2=O)cc1OC (stereo unspecified)
- GI50 (TK-10): 75.2 µM (inactive)
- GI50 (MOLT-4): 47.5 µM (inactive)
- GI50 (SK-MEL-5): 50.1 µM (inactive)
- GI50 (UACC-62): 29.3 µM (inactive)
- GI50 (HCT-116): 30.6 µM (inactive)
- GI50 (K562): 78.3 µM (inactive)
- GI50 (SN12C): > 100 µM (inactive)
- GI50 (UO-31): 27.7 µM (inactive)
- GI50 (NCI-H460): 61 µM (inactive)
- GI50 (PC-3): 54.1 µM (inactive)
- GI50 (EKVX): 23.6 µM (inactive)
- GI50 (RPMI-8226): > 100 µM (inactive)
- GI50 (COLO 205): > 100 µM (inactive)
- GI50 (HCT-15): > 100 µM
- GI50 (HT-29): > 100 µM (inactive)
- GI50 (DU-145): > 100 µM (inactive)
- GI50 (SK-OV-3): 31.4 µM (inactive)

Compound: Cc1cc(S(=O)(=O)Nc2nc(N)nc(N(C)C)n2)c(SCC(=O)O)cc1Cl
- GI50 (TK-10): > 10 µM (inactive)
- GI50 (MOLT-4): > 10 µM (inactive)
- GI50 (SK-MEL-5): > 10 µM (inactive)
- GI50 (HCT-116): > 10 µM (inactive)
- GI50 (K562): > 10 µM (inactive)
- GI50 (SN12C): > 10 µM (inactive)
- GI50 (UO-31): > 10 µM (inactive)
- GI50 (NCI-H460): > 10 µM (inactive)
- GI50 (PC-3): > 10 µM (inactive)
- GI50 (EKVX): > 10 µM (inactive)
- GI50 (RPMI-8226): > 10 µM (inactive)
- GI50 (COLO 205): > 10 µM (inactive)
- GI50 (HCT-15): > 10 µM
- GI50 (HT-29): > 10 µM (inactive)
- GI50 (DU-145): > 10 µM (inactive)
- GI50 (SK-OV-3): > 10 µM (inactive)
